In doi:10.1101/2025.09.29.679234, “Engineered antimicrobial-derived peptides to manipulate mixed microbial systems” (bioRxiv, 2025):
Where two headings read alike, the source gives them in different places. Marks after values point to notes of the source that are not given here. No end group written: not given here. *: point of attachment. FITC = O=C1OC2(c3ccc(O)cc3Oc3cc(O)ccc32)c2ccc(NC(=S)*)cc21

Key:
L. seeligeri [1] = assay: Cell-binding assay by flow cytometry; design: species or system Listeria seeligeri; conditions: for binding at the tested pHs (in words): pH 4.0, 6.0 and 7.4, Figure S10
Experimental: (§1) The binding affinity and avidity of pediocin to various Gram-positive and Gram-negative bacteria were studied using flow cytometry. Late log-phase cells were washed in the sodium phosphate buffer (5 mM, pH 6.0) and resuspended at an OD600 of 10^–3 in sodium-acetate buffer (25 mM, pH 4.0), sodium phosphate buffer (5 mM, pH 6.0) or sodium phosphate buffer (5mM, pH 7.4) containing 1 % BSA (bovine serum albumin) and 100 mM NaCl. Cells were incubated with varying concentrations of the conjugated peptide at 4 °C for 30 min. The unbound peptide was removed by centrifugation, and the pellet was resuspended in their respective binding containing 1 % BSA. Flow cytometry was performed on an Attune NxT flow cytometer (Life Technologies/ThermoFisher Scientific, Carlsbad, CA). Data (≥10^4 events were recorded) was recorded using a […] (488 nm) voltage of 360 V, gating was performed on SSC-A versus SSC-H plot to reduce false events.

E. faecium = assay: Cell-binding assay by flow cytometry; design: species or system Enterococcus faecium; conditions: pH 6.0
Experimental: as §1

[2] = tested on: L. seeligeri in a 5 species synthetic community; assay: Depletion by FACS of FITC-labelled cells in the mixed community (16S V3-V4 amplicon sequencing of the fluorescence-negative population); format: cell-based, Listeria seeligeri; conditions: 40 μM of Ped-FITC printed in method, 4 °C 30 min, pH 6.0, 1 % BSA, 100 mM NaCl
Source text: We posited that pediocin PA-1 characterized here could be a potential tool to modulate the abundance of specific species in an intact microbial community. To this end, we pursued two approaches: 1) using synthetic pediocin PA-1 to deplete specific species by killing and 2) using FITC-conjugated pediocin PA-1 to deplete specific species by cell sorting. To deplete L. seeligeri by killing, we created a synthetic community of L. casei, L. plantarum L. cremoris, E. faecium, and L. seeligeri and grew it for 2 h. We then split the culture into 3 parts to which we added 1 μM, 10 μM, or 0 (control) unmodified pediocin PA-1 (Lifetein), respectively. We observed that after 4 h, the proportion of L. seeligeri in the control (untreated) increased from 18 % to 60 %. […] Next, we assessed the ability of FITC-conjugated pediocin (Ped-FITC) and its 15-mer version to deplete the target species through cell sorting. Again, we created a synthetic community containing L. seeligeri in abundance and assessed the proportion before and after FACS of FITC labeled cells. We attempted to sequence the fluorescence-positive population but were unsuccessful due to poor DNA yield. However, the genomic DNA isolated from the fluorescence-negative population indicated depletion of more than 50 % in the proportion of L. seeligeri from the synthetic community (Figure 4B). […]

L. seeligeri [3] = format: cell-based, Listeria seeligeri; conditions: for antimicrobial activity (in words): kill curve / growth inhibition, Figures S7 and S9
Experimental: (§2) To determine the potency of the purified pediocin PA-1, we generated kill-curves against a range of target bacteria (Figure 1B). The concentration range tested was 3 pM to 3 μM following 10-fold serial dilutions. […] This is in approximate agreement with the published potency of pediocin PA-1 [28] . Though the molecular mass of pediocin PA-1 is expected to be 4.5 kDa, we observed the partially purified peptide to migrate with an apparent mass of ~12.5 kDa (Figure 1B). However, subsequent analysis by LC-MS yielded peaks of multiple m/z with the predominant peak at the expected molecular size of 4.6 kDa (Figure S4). The purified pediocin PA-1, separated on denaturing but non-reducing SDS-PAGE (since this bacteriocin contains two crucial disulfide bonds), was subjected to agar-overlay assay using L. seeligeri as indicator organism (Figure S5).
(§3) The antimicrobial spectrum of pediocin PA-1 was assayed using a kill curve. Cultures grown overnight were resuspended in fresh medium at an OD600 of 0.05. EC50 was determined by incubating cells with varying concentrations of pediocin in a 96-well plate, and growth was measured at 600 nm after 24 h.
Figure S7. Growth inhibition of L. seeligeri by modified and unmodified pediocin PA-1.

B. subtilis = assay: Cell-binding assay by flow cytometry; design: species or system Bacillus subtilis; conditions: for Kd: Atto488 conjugate up to 2 μM, 4 °C 30 min, 1 % BSA, 100 mM NaCl, Hill fit, read-out: Apparent KD
Experimental: as §1

L. coryniformis [4] = assay: Cell-binding assay by flow cytometry; design: species or system Lactobacillus coryniformis; conditions: for Kd: 4 °C 30 min, 1 % BSA, 100 mM NaCl, Hill fit, read-out: Apparent KD
Experimental: as §1

indicator strains = assay: Agar-well diffusion assay, specific activity of the purified peptide; format: cell-based; conditions: agar-well diffusion method; peptide after cell adsorption-desorption and dialysis, purified 189-fold
Experimental: Pediocin PA-1 is known to display narrow-spectrum activity against only a few species that include Lactobacillus coryniformis B-4390 and various Listeria species. We re-tested the antimicrobial spectrum of the pediocin PA-1 producer strain, Pediococcus acidilactici UL5, using agar-well diffusion assays against a few representative members of lactic acid bacteria (LAB) and Gram-negative, E. coli DH5α as a control (Figure S1). The effectiveness of the spent cell-free culture medium was evaluated by its ability to inhibit growth of the indicator strains as measured by zone of inhibition (ZOI). […] Therefore, we conclude that the primary antimicrobial secreted by P. acidilactici UL5 was pediocin PA-1.
We then proceeded to clone the pediocin operon from P. acidilactici UL5 into pSIP-P27 vector for heterologous expression in other lactic acid bacteria viz. Lactiplantibacillus plantarum WCFS1, Lactococcus cremoris MG1363 and the well-established expression host, E. coli MG1655. The pediocin operon imparted anti-listerial activity to the L. plantarum culture supernatant but not to that of L. cremoris or E. coli (Figure 1A). […] The peptide using this method was purified 189-fold with specific activity of 9,434 AU·mg^−1 as measured by agar-well diffusion method (Figure 1B, Figure S2A–C). […]

L. coryniformis [5] = assay: Kill curve (growth at 600 nm after 24 h); format: cell-based, Lactobacillus coryniformis; conditions: Figure 1C, start OD600 0.05, 96-well plate, 3 pM to 3 μM, 10-fold serial dilutions
Experimental: as §2, §3

L. cremoris = assay: Cell-binding assay by flow cytometry; design: species or system Lactococcus cremoris; conditions: Table S1, organism printed as L. lactis
Experimental: as §1

L. casei = assay: Cell-binding assay by flow cytometry; design: species or system Lacticaseibacillus casei; conditions: Table S1
Experimental: as §1

E. coli = assay: Cell-binding assay by flow cytometry; conditions: Table S1
Experimental: as §1

[6] = format: physicochemical
Source text: We then proceeded to clone the pediocin operon from P. acidilactici UL5 into pSIP-P27 vector for heterologous expression in other lactic acid bacteria viz. Lactiplantibacillus plantarum WCFS1, Lactococcus cremoris MG1363 and the well-established expression host, E. coli MG1655. The pediocin operon imparted anti-listerial activity to the L. plantarum culture supernatant but not to that of L. cremoris or E. coli (Figure 1A). Based on the degree of bioactivity, we concluded that the level of recombinant pediocin PA-1 accumulated in L. plantarum culture was […] that observed for P. acidilactici UL5 and was therefore not pursued further. Thus, for subsequent studies, we isolated pediocin PA-1 from P. acidilactici UL5 directly using the cell adsorption-desorption approach (Figure S2). […] We attempted to further purify the preparation using reverse phase HPLC with minimal enhancement in purity but a significant loss in yield (Figure S3). The peptide recovered after cell adsorption-desorption and dialysis was lyophilized for long-term storage to minimize any loss in activity. The peptide using this method was purified 189-fold with specific activity of 9,434 AU·mg^−1 as measured by agar-well diffusion method (Figure 1B, Figure S2A–C).

[7] = flow cytometry, Atto488 conjugate up to 2 μM
[8] = Table S1, maximum mean fluorescence intensity
[9] = signal did not saturate, read-out: Apparent KD

## 15-mer-FITC: FITC-conjugated 15-mer (K20-A34) fragment of pediocin PA-1 (KATTCIINNGAMAWA; also: FITC-conjugated, site not given here; UniProt P29430 38-52, looked up, fragment)
L. seeligeri [1]
  binding at the tested pHs (in words): pH-dependent binding
L. seeligeri [1]; pH 6.0 sodium phosphate 5 mM, 1 % BSA, 100 mM NaCl, 4 °C 30 min, read-out: apparent KD
  Kd: 2800 ± 300 nM
E. faecium
  binding (in words): modest binding
[2]
  depletion in the proportion of L. seeligeri (fluorescence-negative population after FACS): more than 50%

## 30-mer-FITC: FITC-conjugated extended 30-mer fragment (S15-K43) of pediocin PA-1 (SVDWGKATTCIINNGAMAWATGGHQGNHK; also: FITC-conjugated, site not given here; UniProt P29430 33-61, looked up, fragment)
L. seeligeri [1]
  binding at the tested pHs (in words): pH-dependent binding
L. seeligeri [1]; pH 6.0, L. seeligeri or the other species tested
  binding (in words): unable to bind to any species tested

## Ped-FITC: synthesized FITC-conjugated full-length pediocin PA-1 ({FITC}-KYYGNGVTCGKHSCSVDWGKATTCIINNGAMAWATGGHQGNHKC; disulfide (positions not given here); ends not checked; UniProt P29430 19-62, looked up)
L. seeligeri [3]; listed as FITC-conjugation at the N-terminus
  antimicrobial activity (in words): abolished activity entirely
L. seeligeri [3]; listed as conjugate to FITC
  antimicrobial activity (in words): very low activity
B. subtilis; flow cytometry, pH 6.0, highest concentration tested (30 μM)
  binding (in words): modest binding
L. seeligeri [1]
  binding at the tested pHs (in words): strong binding
[2]
  depletion in the proportion of L. seeligeri (fluorescence-negative population after FACS): more than 50%

## Ped-488: purified biosynthetic pediocin conjugated to Atto488 using EDC-NHS chemistry (KYYGNGVTCGKHSCSVDWGKATTCIINNGAMAWATGGHQGNHKC; disulfide (positions not given here); ends not checked; also: Atto488 conjugated via EDC-NHS, site not given here; UniProt P29430 19-62, looked up)
L. seeligeri [3]; Atto488 conjugate vs unmodified pediocin
  reduction in potency relative to the unmodified peptide: 10 fold
L. seeligeri [3]
  antimicrobial activity (in words): maintained its antimicrobial activity
L. seeligeri [3]; listed as Full-length pediocin conjugated to Atto488
  antimicrobial activity (in words): retained antimicrobial activity
L. seeligeri [3]; listed as conjugate to Atto488
  antimicrobial activity (in words): very low activity
L. coryniformis [4]; [7]
  maximum median fluorescence: 6300 MFI
  Kd: ~46 nM
B. subtilis; flow cytometry
  Kd: ~467 nM

## biosynthetic pediocin PA-1: class IIa bacteriocin partially purified from P. acidilactici UL5 by cell adsorption-desorption (KYYGNGVTCGKHSCSVDWGKATTCIINNGAMAWATGGHQGNHKC; UniProt P29430 19-62, looked up)
Indicator strains
  specific activity: 9,434 AU·mg^−1
L. coryniformis [5]
  EC50: ~1 nM
L. seeligeri [3]; Figure 1C, start OD600 0.05, 96-well plate, growth at 600 nm after 24 h, 3 pM to 3 μM, 10-fold serial dilutions, read-out: EC50 (kill-curve)
  EC50: ~13.3 nM
L. coryniformis [4]; Table S1, fit MFI = MFImax[S]^n/(KD^n+[S]^n)
  Hill co-efficient: 1.4
L. coryniformis [4]; [8]
  MFImax (×10^3): 6.3 ± 0.3 ×10^3
L. coryniformis [4]; [7]
  Kd: 46 ± 8 nM
B. subtilis; Table S1, Hill fit
  Hill co-efficient: 0.9
B. subtilis; [8]
  MFImax (×10^3): 7 ± 1 ×10^3
B. subtilis; flow cytometry
  Kd: 467 ± 167 nM
L. cremoris
  Hill co-efficient: 0.7
L. cremoris; [9]
  Kd: > 2000 nM
L. casei
  Hill co-efficient: 0.7
L. casei; signal did not saturate
  MFImax (×10^3): >2* ×10^3
L. casei; [9]
  Kd: > 2000 nM
E. coli
  Hill co-efficient: 0.9
E. coli; [9]
  Kd: > 2000 nM
[6]
  stability of recovered peptide (in words): the peptide recovered at the acidic pH was found to be more stable
